Columns and labels:
[1] = Pharmacokinetic study in mice; assay type: in vivo
Method: The test compound was administered to 7-week-old female BALE/c (BALB/cAnN CrlCrlj) mice intravenously (dosage: 1 mg/kg) in a 50% PEG solution (0.01 mol/L HCl) or orally (dosage: 10 mg/kg) in a 0.5% methylcellulose aqueous solution, and blood was collected at the following times: • Intravenous administration: 5 min, 15 min, 30 min, 1 hr, 2 hr, 4 hr, 6 hr, and 24 hr after administration • Oral administration: 15 min, 30 min, 1 hr, 2 hr, 4 hr, 6 hr, and 24 hr after administration
The collected blood was centrifuged at 3000 rpm×10 min using a refrigerated centrifuge set at 4° C., and the obtained plasma was measured by LC-MS. A calibration curve was prepared from the value (peak ratio) obtained by dividing the peak area of the test substance by the peak area of the internal standard substance in MS and the concentration of the plasma calibration curve sample. The concentration in the sample was calculated from the peak ratio and the calibration curve of each sample.

hSERT = hSERT (Homo sapiens (Human), UniProt P31645); test: Serotonin receptor inhibitory activity evaluation (binding assay, HEK293/hSERT membranes); settings: off-target
Method: The binding evaluation assay was outsourced to Eurofins. Specifically, HEK293/hSERT cells were homogenized in a buffer consisting of 100 mmol/L NaCl, 1 μmol/L Leupeptin, 10 μmol/L PMSF, and 50 mmol/L Tris-HCl (pH7.4). The membrane pellet obtained by centrifugation was resuspended in an incubation buffer consisting of 50 mmol/L Tris-HCl (pH 7.4), 120 mmol/L NaCl, and 5 mmol/L KCl to prepare a membrane preparation. The test compound (1-10 μmol/L DMSO solution), the membrane preparation, and 0.4 nmol/L [^3H]Paroxetin were mixed and incubated at 25° C. for 60 minutes. The cell membrane-[^3H]Paroxetin complex was bound to a GF/B filter mat by vacuum filtration and washed with 50 mmol/L Tris-HCl (pH 7.4). The effect on the receptor was assessed by measuring radioactivity using a scintillation counter.

G-401 cells = test: Cell proliferation inhibition experiment using G-401 cells; assay type: cell-based
Method: G-401 cells (derived from malignant rhabdoid tumor) were obtained from the American Type Culture Collection (ATCC). G-401 cells were cultured in McCoy's 5A medium containing 10% fetal bovine serum and 1% penicillin/streptomycin under conditions of 37° C. and 5% CO2.
500 cells per well were seeded in a 384-well plate. One day after seeding, Examples 1 to 35 were added so that the final concentration of DMSO was 0.1%, and the cells were cultured for 3 days. After the culture was completed, the cell viability was measured using CellTiter-Glo Luminescent Cell Viability Assay (Promega, G7570).

hDAT = hDAT (Homo sapiens (Human), UniProt Q01959); test: Dopamine receptor inhibitory activity evaluation (binding assay, CHO-S/hDAT membranes); settings: off-target
Method: The binding evaluation assay was outsourced to Eurofins. Specifically, CHO—S/hDAT cells were homogenized in an incubation buffer consisting of 50 mmol/L Tris-HCl, pH 7.4, 100 mmol/L NaCl, 1 μmol/L Leupeptin, and 10 μmol/L PMSF. The membrane pellet obtained by centrifugation was resuspended in the incubation buffer to prepare a membrane preparation. The test compound (1-10 μmol/L DMSO solution), the membrane preparation, and 0.15 nmol/L […] were mixed and incubated at 4° C. for 180 minutes. The cell membrane-[^125I]RTI-55 complex was bound to a GF/B filter mat by vacuum filtration and washed with 50 mmol/L Tris-HCl, pH 7.4. The effect on the receptor was assessed by measuring radioactivity using a scintillation counter.

Solubility test = assay type: physicochemical; settings: pH 2.0 and pH 3.0 buffers
Method: The solubility was measured for Examples 7, 10, 20, 23, 24, and 30 to 34, Comparative Example 1, and Comparative Example 2. The test compound was added to 10 mmol/L glycine buffer (pH 2.0) and 10 mmol/L citrate buffer (pH 3.0), and the mixture was stored in a thermostatic chamber at 5° C. After standing overnight, the mixture was filtered through a membrane filter, and the concentration of the filtrate was measured by HPLC.
The HPLC measurement conditions are as follows.
HPLC conditions • Column: Acquity UPLC BEH C18, 1.7 μm, 50×2.1 mm • Column temperature: 40° C. • Mobile phase: A: 0.1% trifluoroacetic acid-containing water • B: acetonitrile • A/B (min): 95/5 (0)→0/100 (3.5)→0/100 (4)→95/5 (4.01)→95/5 (5) • Flow rate: 0.8 mL/min • Detection: UV visible detector, measurement wavelength 254 nm • Injection volume: 5 μL or • Column: Acquity UPLC BEH C18, 1.7 μm, 50×2.1 mm • Column temperature: 40° C. • Mobile phase: A: 0.1% trifluoroacetic acid-containing water • B: acetonitrile • A/B (min): • 80/20 (0)→40/60 (3.0)→0/100 (3.5)→0/100 (4)→80/20 (4.01)→80/20 (5) • Flow rate: 0.8 mL/min • Detection: UV visible detector, measurement wavelength 254 nm • Injection volume: 2 μL or • Column: Acquity UPLC BEH C18, 1.7 μm, 50×2.1 mm • Column temperature: 40° C. • Mobile phase: A: 0.1% trifluoroacetic acid-containing water • B: acetonitrile • A/B (min): • 80/20 (0)→40/60 (3.0)→0/100 (3.5)→0/100 (4)→100/0 (4.01)→100/0 (5) • Flow rate: 0.8 mL/min • Detection: UV visible detector, measurement wavelength 254 nm • Injection volume: 3 μL

G-401 xenograft [2] = test: Drug efficacy evaluation by oral administration using G-401 xenograft model mice; assay type: in vivo
Method: (§1) G-401 cells (ATCC) were intradermally transplanted into 4-7-week-old BALB/cAnNCrj-nu/nu mice (CAnN.Cg-Foxnl/CrlCrlj, Jackson Laboratory Japan) at 5×10^5 cells/mouse. After confirming the engraftment of G-401 cells 10-40 days after transplantation, the test compound suspended in a solvent such as 0.5% methylcellulose solution was orally administered twice a day at a dose of 1-100 mg/kg. The tumor volume was measured over time from the start of administration, and the effect of tumor volume reduction by administration of the test compound was evaluated. The tumor volume can be calculated from the following equation using the minor axis and major axis of the tumor measured with an electronic caliper (Mitutoyo).
A control administration group administered with only a solvent such as 0.5% methylcellulose solution and a test compound administration group were compared, and the antitumor effect was evaluated by calculating T/C from the following equation.

recombinant p300 = recombinant p300 (Homo sapiens (Human), UniProt Q09472); test: HAT activity inhibition experiment (SensoLyte HAT(p300) Assay Kit); assay type: biochemical
Method: The HAT activity inhibitory ability of HAT inhibitors was evaluated using SensoLyte HAT(p300) Assay Kit (ANASPEC, AS-72172). Specifically, 7.5 μL of the compound of Examples […] diluted with assay buffer was added to 7.5 μL of recombinant p300 solution diluted 10 times with assay buffer, and the mixture was incubated at room temperature for 10 minutes. 7.5 μL of acetyl CoA solution diluted 10 times with assay buffer and 15 μL of histone H3 peptide diluted 10 times with assay buffer were added thereto, and the mixture was incubated at 37° C. for 30 minutes. 37.5 μL of Stop Solution was added to stop the reaction. 75 μL of p300 Developer solution diluted 50 times with assay buffer was added, and the mixture was incubated at room temperature for 30 minutes under light-shielded conditions. The fluorescence at 513 nm when irradiated with 389 nm excitation light was measured using a multiplate reader.

G-401 xenograft [3] = test: Drug efficacy evaluation by intravenous administration using G-401 xenograft mice model; assay type: in vivo; settings: G-401 xenograft model
Method: as §1, with “as 10 mmol/L glycine buffer” for “as 0.5% methylcellulose”, “solution (pH 2.0)” for “solution”, “was” for “was orally”, “administered via the tail vein at least once” for “administered twice”, “a week” for “a day”, “of 0.015-20” for “of 1-100”
A control administration group administered with only a solvent such as 10 mmol/L glycine buffer solution (pH 2.0) and a test compound administration group were compared, and the antitumor effect was evaluated by calculating T/C from the following equation.

hDAT, sequence (Q01959 whole entry): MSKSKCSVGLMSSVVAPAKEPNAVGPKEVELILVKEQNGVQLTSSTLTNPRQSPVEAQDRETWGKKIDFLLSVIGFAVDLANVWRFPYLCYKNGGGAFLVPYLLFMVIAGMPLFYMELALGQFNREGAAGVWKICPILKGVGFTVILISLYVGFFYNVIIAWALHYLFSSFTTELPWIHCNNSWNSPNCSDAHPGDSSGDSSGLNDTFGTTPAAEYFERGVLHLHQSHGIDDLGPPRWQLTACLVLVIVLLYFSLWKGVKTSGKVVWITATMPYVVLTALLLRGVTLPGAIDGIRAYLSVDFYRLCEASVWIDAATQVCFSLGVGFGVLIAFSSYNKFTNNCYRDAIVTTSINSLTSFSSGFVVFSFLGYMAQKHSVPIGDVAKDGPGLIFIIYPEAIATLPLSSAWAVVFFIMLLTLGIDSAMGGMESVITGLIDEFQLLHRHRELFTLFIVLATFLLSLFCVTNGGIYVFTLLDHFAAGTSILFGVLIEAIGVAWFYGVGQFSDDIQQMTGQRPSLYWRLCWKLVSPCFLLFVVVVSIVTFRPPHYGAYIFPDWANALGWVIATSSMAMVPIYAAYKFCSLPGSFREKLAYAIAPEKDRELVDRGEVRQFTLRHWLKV
hSERT, sequence (P31645 whole entry): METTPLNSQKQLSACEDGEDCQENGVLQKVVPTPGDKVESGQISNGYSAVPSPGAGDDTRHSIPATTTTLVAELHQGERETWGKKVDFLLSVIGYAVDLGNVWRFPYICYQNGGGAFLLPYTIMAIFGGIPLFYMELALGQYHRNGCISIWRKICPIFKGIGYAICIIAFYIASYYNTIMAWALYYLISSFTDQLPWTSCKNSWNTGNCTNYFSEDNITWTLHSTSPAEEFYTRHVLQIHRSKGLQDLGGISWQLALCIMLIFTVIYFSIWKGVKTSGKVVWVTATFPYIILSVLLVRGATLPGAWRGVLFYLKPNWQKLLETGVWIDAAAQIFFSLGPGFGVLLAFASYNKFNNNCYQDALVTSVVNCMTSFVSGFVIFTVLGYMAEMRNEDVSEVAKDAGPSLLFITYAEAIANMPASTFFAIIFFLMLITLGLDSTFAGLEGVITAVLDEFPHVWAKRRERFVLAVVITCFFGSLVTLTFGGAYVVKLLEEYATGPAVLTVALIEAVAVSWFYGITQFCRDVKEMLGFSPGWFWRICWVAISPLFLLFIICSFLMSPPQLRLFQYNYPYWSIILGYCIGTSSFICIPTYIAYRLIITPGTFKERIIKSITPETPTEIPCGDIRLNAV
recombinant p300, sequence (Q09472 whole entry): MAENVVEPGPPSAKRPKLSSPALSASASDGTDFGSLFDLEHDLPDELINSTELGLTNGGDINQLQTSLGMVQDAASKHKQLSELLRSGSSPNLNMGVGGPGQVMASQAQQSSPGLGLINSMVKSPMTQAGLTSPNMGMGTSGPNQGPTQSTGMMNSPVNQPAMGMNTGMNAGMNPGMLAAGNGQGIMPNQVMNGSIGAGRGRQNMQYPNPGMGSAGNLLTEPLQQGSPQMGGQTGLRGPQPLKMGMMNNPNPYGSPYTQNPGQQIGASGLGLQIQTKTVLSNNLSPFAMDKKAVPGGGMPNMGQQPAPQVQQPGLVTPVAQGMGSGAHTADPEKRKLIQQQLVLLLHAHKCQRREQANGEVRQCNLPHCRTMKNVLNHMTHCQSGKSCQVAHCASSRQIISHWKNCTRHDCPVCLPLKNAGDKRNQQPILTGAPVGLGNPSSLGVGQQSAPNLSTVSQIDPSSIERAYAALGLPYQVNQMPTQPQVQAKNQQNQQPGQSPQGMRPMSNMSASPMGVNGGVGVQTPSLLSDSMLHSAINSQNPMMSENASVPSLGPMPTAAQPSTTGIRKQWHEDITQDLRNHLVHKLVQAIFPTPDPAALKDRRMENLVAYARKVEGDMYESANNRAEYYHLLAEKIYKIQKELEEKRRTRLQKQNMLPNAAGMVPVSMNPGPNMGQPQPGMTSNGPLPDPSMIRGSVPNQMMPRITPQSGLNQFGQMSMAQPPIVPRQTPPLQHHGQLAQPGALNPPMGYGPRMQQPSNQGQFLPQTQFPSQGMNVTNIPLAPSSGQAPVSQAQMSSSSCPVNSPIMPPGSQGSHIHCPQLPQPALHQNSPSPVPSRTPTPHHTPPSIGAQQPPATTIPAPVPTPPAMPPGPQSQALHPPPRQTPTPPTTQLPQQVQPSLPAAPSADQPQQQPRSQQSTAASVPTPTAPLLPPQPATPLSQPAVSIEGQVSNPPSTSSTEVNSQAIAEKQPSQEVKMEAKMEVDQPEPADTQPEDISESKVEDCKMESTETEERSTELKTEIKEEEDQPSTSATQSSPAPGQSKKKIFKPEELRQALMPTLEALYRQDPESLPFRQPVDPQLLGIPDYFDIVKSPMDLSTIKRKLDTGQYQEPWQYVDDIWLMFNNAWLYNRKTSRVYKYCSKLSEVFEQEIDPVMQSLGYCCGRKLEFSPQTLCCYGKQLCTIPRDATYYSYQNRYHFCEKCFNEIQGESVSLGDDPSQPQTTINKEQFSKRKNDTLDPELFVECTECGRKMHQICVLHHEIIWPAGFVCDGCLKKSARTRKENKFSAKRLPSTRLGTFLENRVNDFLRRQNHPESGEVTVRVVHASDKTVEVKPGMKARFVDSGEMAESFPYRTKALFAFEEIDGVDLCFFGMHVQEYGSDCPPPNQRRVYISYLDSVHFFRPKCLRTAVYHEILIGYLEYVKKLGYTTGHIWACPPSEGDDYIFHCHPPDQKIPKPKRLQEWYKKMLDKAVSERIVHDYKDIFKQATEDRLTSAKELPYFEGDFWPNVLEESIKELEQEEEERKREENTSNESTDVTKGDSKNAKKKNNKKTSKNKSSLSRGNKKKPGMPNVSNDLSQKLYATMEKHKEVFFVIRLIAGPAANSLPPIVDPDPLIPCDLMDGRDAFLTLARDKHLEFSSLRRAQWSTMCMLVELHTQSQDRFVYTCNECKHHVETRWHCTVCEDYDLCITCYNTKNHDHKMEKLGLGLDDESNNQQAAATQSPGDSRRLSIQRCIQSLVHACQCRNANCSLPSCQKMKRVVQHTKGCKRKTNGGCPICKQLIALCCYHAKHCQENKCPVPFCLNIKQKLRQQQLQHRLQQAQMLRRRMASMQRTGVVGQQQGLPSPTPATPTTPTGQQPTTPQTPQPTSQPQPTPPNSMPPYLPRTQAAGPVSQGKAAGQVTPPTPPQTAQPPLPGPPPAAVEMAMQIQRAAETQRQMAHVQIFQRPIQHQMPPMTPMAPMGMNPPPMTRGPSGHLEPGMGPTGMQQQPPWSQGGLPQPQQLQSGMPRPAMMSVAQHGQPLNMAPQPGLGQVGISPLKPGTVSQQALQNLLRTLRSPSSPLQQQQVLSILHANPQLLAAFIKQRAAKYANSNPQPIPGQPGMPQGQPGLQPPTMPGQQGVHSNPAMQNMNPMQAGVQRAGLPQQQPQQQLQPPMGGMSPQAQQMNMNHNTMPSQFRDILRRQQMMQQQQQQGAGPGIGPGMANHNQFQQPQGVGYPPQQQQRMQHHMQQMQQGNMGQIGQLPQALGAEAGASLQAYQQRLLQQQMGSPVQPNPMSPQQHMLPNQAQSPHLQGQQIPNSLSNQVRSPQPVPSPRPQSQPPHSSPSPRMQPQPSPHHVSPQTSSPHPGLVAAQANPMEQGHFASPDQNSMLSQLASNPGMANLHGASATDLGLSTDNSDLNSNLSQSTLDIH

O=C1N[C@]2(C[C@@H](F)c3cc(-c4cnn(C5CN(C6COC6)C5)c4)ccc32)C(=O)N1CC(=O)N(Cc1ccc(F)cn1)C1(C(F)(F)F)COC1 [Example 7, 2-[(1′S,3′R)-3′-fluoro-5′-{1-[1-(oxetan-3-yl)azetidin-3-yl]-1H-pyrazol-4-yl}-2,5-dioxo-2′,3′-dihydrospiro[imidazolidine-4,1′-inden]-1-yl]-N-[(5-fluoropyridin-2-yl)methyl]-N-[3-(trifluoromethyl)oxetan-3-yl]acetamide]
Pharmacokinetics (in words) [1]: excellent pharmacokinetics
Inhibitory effect on serotonin receptors (in words) (hSERT): did not show strong inhibitory activity
Cell proliferation inhibitory effect on G-401 cells (in words) (G-401 cells): strong cell proliferation inhibitory effect
Inhibitory effect on dopamine receptors (in words) (hDAT): did not show strong inhibitory activity
Solubility (in words) (Solubility test): high solubility
Antitumor effect, oral administration (in words) (G-401 xenograft [2]): strong antitumor effects
HAT activity inhibition (in words) (recombinant p300): strong inhibition of HAT activity
Antitumor effect, intravenous administration (in words) (G-401 xenograft [3]): strong antitumor effects

Reference: patent US20250263415A1, “TERTIARY AMIDE DERIVATIVES SUBSTITUTED WITH 4-MEMBERED RING STRUCTURE” (Sumitomo Pharma Co., Ltd., priority 2024, published 2025)
